From BindingDB's records for patent US20240034729 (Wuhan Ll Science and Technology Development, 2024) come the findings set out here.

A value given as a limit tells only on which side of the number the result lay.

This assay addresses T1, P2X purinoceptor 3 (Homo sapiens, UniProt P56373).
T1 sequence (P56373 whole entry): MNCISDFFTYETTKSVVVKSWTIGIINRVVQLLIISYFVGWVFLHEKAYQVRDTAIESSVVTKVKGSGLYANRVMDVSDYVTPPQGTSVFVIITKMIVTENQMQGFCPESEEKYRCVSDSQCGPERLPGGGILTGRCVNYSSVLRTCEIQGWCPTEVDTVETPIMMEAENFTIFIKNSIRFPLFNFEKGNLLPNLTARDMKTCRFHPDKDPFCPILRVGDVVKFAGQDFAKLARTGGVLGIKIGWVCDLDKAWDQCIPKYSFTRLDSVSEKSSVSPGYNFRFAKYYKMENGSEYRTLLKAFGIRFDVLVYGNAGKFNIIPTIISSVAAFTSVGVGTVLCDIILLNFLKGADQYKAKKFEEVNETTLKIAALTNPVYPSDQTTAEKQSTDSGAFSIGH
The experiment in a line: Evaluation of In Vitro Biological Activity. As for the experimental part:
Each well was added with 10 μL of test compound (which was dissolved in DMSO at a concentration of 10 mM and serially diluted with buffer) or vehicle, and then was left to equilibrate for 30 min at room temperature.
Take `COC(=O)N1CCO[C@@H](Cc2c(-c3c(F)cc(-n4cnnn4)cc3F)nc3cc(C)ccn23)C1` [US20240034729, Compound 58]: the IC50 (usually the concentration needed to halve the response being measured) was below 10 nM.
As to `COC(=O)N1CCO[C@@H](Cc2c(-c3c(F)cc(-c4nc(C5(C(N)=O)CC5)c[nH]4)cc3F)nc3cc(C)ccn23)C1` [US20240034729, Compound 133], the IC50 was below 100 nM.
For `COC(=O)N1CCO[C@@H](Cc2c(-c3c(F)cc(CC(N)=O)cc3F)nc3cc(C)ccn23)C1` [US20240034729, Compound 63] the value was below 1000 nM.
To `COC(=O)N1CCO[C@@H](Cc2c(-c3c(F)cc(-c4nc(C(C)(C)O)co4)cc3F)nc3cc(C)ccn23)C1` [US20240034729, Compound 119] belongs below 100 nM.
In turn, `COC(=O)N1CCO[C@@H](Cc2c(-c3c(F)cc(NC(=O)/C=C/C(N)=O)cc3F)nc3cc(C)ccn23)C1` [US20240034729, Compound 29] yielded an IC50 below 10 nM.
For `COC(=O)N1CCO[C@@H](Cc2c(-c3c(F)cc(-c4ncccn4)cc3F)nc3cc(C)ccn23)C1` [US20240034729, Compound 18] the value was below 1000 nM; for `CCC(=O)c1ccn(-c2cc(F)c(-c3nc4cc(C)ccn4c3C[C@H]3CN(C(=O)OC)CCO3)c(F)c2)n1` [US20240034729, Compound 164], below 100 nM; for `COC(=O)N1CCO[C@@H](Cc2c(-c3c(F)cc(-c4nn[nH]n4)cc3F)nc3cc(C)ccn23)C1` [US20240034729, Compound 104], below 1000 nM.
To `COC(=O)N1CCO[C@@H](Cc2c(-c3c(F)cc(-c4nc(C5(C(=O)O)CC5)c[nH]4)cc3F)nc3cc(C)ccn23)C1` [US20240034729, Compound 59] belongs below 10 nM.
For `COC(=O)N1CCO[C@@H](Cc2c(-c3c(F)cc(-n4cnc(C(N)=O)c4)cc3F)nc3cc(C)ccn23)C1` [US20240034729, Compound 110] the value was below 100 nM; for `COC(=O)N1CCO[C@@H](Cc2c(-c3c(F)cc(C#N)cc3F)nc3cc(C)ccn23)C1` [US20240034729, Compound 6], below 1000 nM.
Regarding `COC(=O)N1CCO[C@@H](Cc2c(-c3c(F)cc(NC(=O)C4(C#N)CC4)cc3F)nc3cc(C)ccn23)C1` [US20240034729, Compound 89], the IC50 was below 100 nM.
Compound `COC(=O)N1CCO[C@@H](Cc2c(-c3c(F)cc(-c4nc(C5(C#N)CC5)c[nH]4)cc3F)nc3cc(C)ccn23)C1` [US20240034729, Compound 144] yielded a 50% inhibitory concentration (IC50) below 100 nM.
To `COC(=O)N1CCO[C@@H](Cc2c(-c3c(F)cc(-c4ccc(C(N)=O)cn4)cc3F)nc3cc(C)ccn23)C1` [US20240034729, Compound 146] belongs below 1000 nM; to `COC(=O)N1CCO[C@@H](Cc2c(-c3c(F)cc(NC4CCC(=O)C4)cc3F)nc3cc(C)ccn23)C1` (some centres undefined) [US20240034729, Compound 79], below 100 nM; to `COC(=O)N1CCO[C@@H](Cc2c(-c3c(F)cc(-c4ccc(O)cn4)cc3F)nc3cc(C)ccn23)C1` [US20240034729, Compound 147], below 100 nM.
`COC(=O)N1CCO[C@@H](Cc2c(-c3c(F)cc(N4CC=CC4=O)cc3F)nc3cc(C)ccn23)C1` [US20240034729, Compound 169] yielded an IC50 below 10 nM.
For `CCC(=O)N1CCO[C@@H](Cc2c(-c3c(F)cc(-c4ncc[nH]4)cc3F)nc3cc(C)ccn23)C1` [US20240034729, Compound 52], the IC50 is below 10 nM.
As to `COC(=O)N1CCO[C@@H](Cc2c(-c3c(F)cc(NC(=O)C4(C(=O)OC)CC4)cc3F)nc3cc(C)ccn23)C1` [US20240034729, Compound 97], the IC50 was below 1000 nM.
